# Measured values reported in patent US11945822B2, “Pyrazolo-triazine and/or pyrazolo-pxrimidine derivatives as selective inhibitor of cyclin dependent kinase” (QURIENT CO., LTD., priority 2018, dated 2024).
# Molecular target: T1, CDK1/Cyclin B (Homo sapiens, UniProt P06493)
# T1 construct: purchased Invitrogen PR4768C
# Experiment: Enzymatic assay for CDK1 (FRET based LANCE Ultra kinase assay)
# Format: biochemical
# Conditions: read-out: CDK1 enzymatic activity (IC50 range)
# In short: (§1)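 Each CDK complex ([…]) phosphorylated 68 nM ULight-MBP peptide with ATP at Km for 60 min at 23° C., against 8 compound doses (4-fold dilutions). EDTA/Eu-anti-phospho-MBP detection, 60 min, then TR-FRET emission at 615 and 665 nm.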
# T1 sequence (P06493 whole entry): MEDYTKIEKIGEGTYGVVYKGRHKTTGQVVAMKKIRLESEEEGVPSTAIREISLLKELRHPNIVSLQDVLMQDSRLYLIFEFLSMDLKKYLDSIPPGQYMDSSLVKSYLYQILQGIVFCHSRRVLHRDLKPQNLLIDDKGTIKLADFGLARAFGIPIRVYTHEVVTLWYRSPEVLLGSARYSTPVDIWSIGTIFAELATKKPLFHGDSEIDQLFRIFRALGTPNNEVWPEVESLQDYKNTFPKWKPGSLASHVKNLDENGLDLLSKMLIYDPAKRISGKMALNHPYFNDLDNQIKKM
# T1 sequence (P14635 whole entry partner): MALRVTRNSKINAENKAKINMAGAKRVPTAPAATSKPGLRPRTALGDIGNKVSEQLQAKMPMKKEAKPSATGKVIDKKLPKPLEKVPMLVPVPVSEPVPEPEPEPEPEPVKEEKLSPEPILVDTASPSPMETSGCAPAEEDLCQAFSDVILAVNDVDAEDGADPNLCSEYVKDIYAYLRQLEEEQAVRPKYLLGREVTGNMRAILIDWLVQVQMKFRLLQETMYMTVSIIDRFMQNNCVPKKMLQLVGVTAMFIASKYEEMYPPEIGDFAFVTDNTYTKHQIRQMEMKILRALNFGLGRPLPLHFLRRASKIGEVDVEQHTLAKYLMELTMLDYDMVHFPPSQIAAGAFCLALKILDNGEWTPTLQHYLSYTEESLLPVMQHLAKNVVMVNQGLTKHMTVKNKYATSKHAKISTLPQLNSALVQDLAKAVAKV
row,IC50,Compound
1,> 1 µM,CC(C)c1cnn2c(NCc3ccccc3-n3cccn3)nc(N3CCC(O)CC3)nc12 [Compound 4]
2,> 1 µM,CC(C)c1cnn2c(NCc3ccccc3-c3ccc4ccccc4n3)nc(NCCC(O)CN)nc12 (racemic) [Compound 234]
3,> 1 µM,CC(C)c1cnn2c(NCc3ccccc3-n3ccc(C(C)(C)O)n3)nc(NC[C@H]3CCNC[C@@H]3O)nc12 [Compound 233]
4,> 1 µM,CC(C)c1cnn2c(NCc3ccccc3-n3cccn3)nc(N3CCNCC3)nc12 [Compound 2]

# Molecular target: T2, CDK2/Cyclin A (Homo sapiens, UniProt P24941)
# T2 construct: purchased Invitrogen PV6290
# Experiment: Enzymatic assay for CDK2 (FRET based LANCE Ultra kinase assay)
# Format: biochemical
# Conditions: read-out: CDK2 enzymatic activity (IC50 range)
# In short: as §1
row,IC50,Compound
1,0.1 to 1 µM,CC(C)c1cnn2c(NCc3ccccc3-n3cccn3)nc(N3CCC(O)CC3)nc12 [Compound 4]
2,> 1 µM,CC(C)c1cnn2c(NCc3ccccc3-c3ccc4ccccc4n3)nc(NCCC(O)CN)nc12 (racemic) [Compound 234]
3,0.1 to 1 µM,CC(C)c1cnn2c(NCc3ccccc3-n3ccc(C(C)(C)O)n3)nc(NC[C@H]3CCNC[C@@H]3O)nc12 [Compound 233]
4,0.1 to 1 µM,CC(C)c1cnn2c(NCc3ccccc3-n3cccn3)nc(N3CCNCC3)nc12 [Compound 2]

# Molecular target: T3, CDK5/p25 (Homo sapiens, UniProt Q00535)
# T3 construct: purchased Invitrogen PR8543B
# Experiment: Enzymatic assay for CDK5 (FRET based LANCE Ultra kinase assay)
# Format: biochemical
# Conditions: read-out: CDK5 enzymatic activity (IC50 range)
# In short: as §1
# T3 sequence (Q00535 whole entry): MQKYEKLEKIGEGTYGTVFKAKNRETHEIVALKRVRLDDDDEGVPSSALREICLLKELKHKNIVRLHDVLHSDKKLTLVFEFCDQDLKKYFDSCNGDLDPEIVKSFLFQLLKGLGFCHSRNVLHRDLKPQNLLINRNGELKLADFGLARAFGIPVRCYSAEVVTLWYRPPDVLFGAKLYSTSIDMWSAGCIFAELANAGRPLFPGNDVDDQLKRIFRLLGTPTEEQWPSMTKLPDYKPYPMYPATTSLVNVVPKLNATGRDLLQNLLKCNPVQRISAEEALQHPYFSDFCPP
# T3 sequence (Q15078 99-307 partner limits assumed): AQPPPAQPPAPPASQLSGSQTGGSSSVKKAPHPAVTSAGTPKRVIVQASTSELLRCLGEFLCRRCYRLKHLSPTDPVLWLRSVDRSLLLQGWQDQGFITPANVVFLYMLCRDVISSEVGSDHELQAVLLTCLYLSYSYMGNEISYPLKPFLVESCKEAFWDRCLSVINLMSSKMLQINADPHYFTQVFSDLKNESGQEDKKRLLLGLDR
row,IC50,Compound
1,0.1 to 1 µM,CC(C)c1cnn2c(NCc3ccccc3-n3cccn3)nc(N3CCC(O)CC3)nc12 [Compound 4]
2,> 1 µM,CC(C)c1cnn2c(NCc3ccccc3-c3ccc4ccccc4n3)nc(NCCC(O)CN)nc12 (racemic) [Compound 234]
3,> 1 µM,CC(C)c1cnn2c(NCc3ccccc3-n3ccc(C(C)(C)O)n3)nc(NC[C@H]3CCNC[C@@H]3O)nc12 [Compound 233]
4,0.1 to 1 µM,CC(C)c1cnn2c(NCc3ccccc3-n3cccn3)nc(N3CCNCC3)nc12 [Compound 2]

# Molecular target: T4, CDK7/Cyclin H/MNAT1 (Homo sapiens, UniProt P50613)
# T4 construct: purchased Invitrogen PR6749B
# Experiment: Enzymatic assay for CDK7 (FRET based LANCE Ultra kinase assay)
# Format: biochemical
# Conditions: CDK7 over CDK1
# In short: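 Inhibition was measured at Km ATP by time-resolved FRET between a Eu anti-phospho antibody and a phosphorylated ULight peptide. The enzyme was the purified CDK7/cyclin complex, and data were curve-fitted.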
# T4 sequence (P50613 whole entry): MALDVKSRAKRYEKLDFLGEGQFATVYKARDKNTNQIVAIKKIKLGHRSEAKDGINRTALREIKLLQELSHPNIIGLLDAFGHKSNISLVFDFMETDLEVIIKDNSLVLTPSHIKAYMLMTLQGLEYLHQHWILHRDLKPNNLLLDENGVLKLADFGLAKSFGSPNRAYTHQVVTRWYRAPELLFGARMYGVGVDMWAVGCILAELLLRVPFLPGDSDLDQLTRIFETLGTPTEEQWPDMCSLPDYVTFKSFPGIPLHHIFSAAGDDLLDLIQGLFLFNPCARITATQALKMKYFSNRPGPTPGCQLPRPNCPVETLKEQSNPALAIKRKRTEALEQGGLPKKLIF
# T4 sequence (P51946 whole entry partner): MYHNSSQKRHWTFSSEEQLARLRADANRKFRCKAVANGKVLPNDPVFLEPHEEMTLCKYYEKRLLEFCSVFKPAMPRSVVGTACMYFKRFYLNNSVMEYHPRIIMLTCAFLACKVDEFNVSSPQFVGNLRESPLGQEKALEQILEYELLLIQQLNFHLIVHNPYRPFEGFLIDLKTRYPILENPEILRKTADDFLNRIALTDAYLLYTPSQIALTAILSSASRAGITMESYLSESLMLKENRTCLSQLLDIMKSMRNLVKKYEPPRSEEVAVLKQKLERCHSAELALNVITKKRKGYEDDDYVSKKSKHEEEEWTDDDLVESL
# T4 sequence (P51948 whole entry partner): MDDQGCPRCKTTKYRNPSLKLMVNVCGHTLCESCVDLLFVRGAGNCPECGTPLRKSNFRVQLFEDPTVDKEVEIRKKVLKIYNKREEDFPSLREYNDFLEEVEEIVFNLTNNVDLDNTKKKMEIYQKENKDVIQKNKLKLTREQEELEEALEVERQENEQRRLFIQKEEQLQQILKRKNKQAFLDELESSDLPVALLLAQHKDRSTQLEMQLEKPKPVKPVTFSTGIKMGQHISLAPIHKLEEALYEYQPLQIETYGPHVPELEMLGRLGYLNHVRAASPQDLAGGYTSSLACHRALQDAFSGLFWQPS
row,CDK1/CDK7: Selectivity of CDK7 inhibition over CDK1 inhibition,Compound
1,A (A=greater than 200 fold),CC(C)c1cnn2c(NCc3ccccc3-c3ccc4ccccc4n3)nc(NCCC(O)CN)nc12 (racemic) [Compound 234]
2,A (A=greater than 200 fold),CC(C)c1cnn2c(NCc3ccccc3-n3ccc(C(C)(C)O)n3)nc(NC[C@H]3CCNC[C@@H]3O)nc12 [Compound 233]
3,A (A=greater than 200 fold),CC(C)c1cnn2c(NCc3ccccc3-n3cccn3)nc(N3CCNCC3)nc12 [Compound 2]

row,Compound,CDK1/CDK7: Selectivity of CDK7 inhibition over CDK1 inhibition
1,CC(C)c1cnn2c(NCc3ccccc3-n3cccn3)nc(N3CCC(O)CC3)nc12 [Compound 4],"B (B=less than 200 fold, but greater than 20 fold)"

# Same assay, conditions: CDK7 over CDK2
row,Compound,CDK2/CDK7: Selectivity of CDK7 inhibition over CDK2 inhibition
1,CC(C)c1cnn2c(NCc3ccccc3-n3cccn3)nc(N3CCC(O)CC3)nc12 [Compound 4],"B (B=less than 200 fold, but greater than 20 fold)"
2,CC(C)c1cnn2c(NCc3ccccc3-c3ccc4ccccc4n3)nc(NCCC(O)CN)nc12 (racemic) [Compound 234],A (A=greater than 200 fold)
3,CC(C)c1cnn2c(NCc3ccccc3-n3ccc(C(C)(C)O)n3)nc(NC[C@H]3CCNC[C@@H]3O)nc12 [Compound 233],"B (B=less than 200 fold, but greater than 20 fold)"
4,CC(C)c1cnn2c(NCc3ccccc3-n3cccn3)nc(N3CCNCC3)nc12 [Compound 2],"B (B=less than 200 fold, but greater than 20 fold)"

# Same assay, conditions: CDK7 over CDK5
row,Compound,CDK5/CDK7: Selectivity of CDK7 inhibition over CDK5 inhibition
1,CC(C)c1cnn2c(NCc3ccccc3-n3cccn3)nc(N3CCC(O)CC3)nc12 [Compound 4],"B (B=less than 200 fold, but greater than 20 fold)"
2,CC(C)c1cnn2c(NCc3ccccc3-c3ccc4ccccc4n3)nc(NCCC(O)CN)nc12 (racemic) [Compound 234],A (A=greater than 200 fold)
3,CC(C)c1cnn2c(NCc3ccccc3-n3ccc(C(C)(C)O)n3)nc(NC[C@H]3CCNC[C@@H]3O)nc12 [Compound 233],A (A=greater than 200 fold)
4,CC(C)c1cnn2c(NCc3ccccc3-n3cccn3)nc(N3CCNCC3)nc12 [Compound 2],"B (B=less than 200 fold, but greater than 20 fold)"

# Same assay, conditions: read-out: CDK7 enzymatic activity (IC50 range)
row,IC50,Compound
1,< 0.1 µM,CC(C)c1cnn2c(NCc3ccccc3-n3cccn3)nc(N3CCC(O)CC3)nc12 [Compound 4]
2,< 0.1 µM,CC(C)c1cnn2c(NCc3ccccc3-c3ccc4ccccc4n3)nc(NCCC(O)CN)nc12 (racemic) [Compound 234]
3,< 0.1 µM,CC(C)c1cnn2c(NCc3ccccc3-n3ccc(C(C)(C)O)n3)nc(NC[C@H]3CCNC[C@@H]3O)nc12 [Compound 233]
4,0.1 to 1 µM,CC(C)c1cnn2c(NCc3ccccc3-n3cccn3)nc(N3CCNCC3)nc12 [Compound 2]

# Test system: HCT116
# Experiment: Cellular HCT116 viability assay (CellTiter-Glo, 72 hours)
# Format: cell-based
# Conditions: Homo sapiens, HCT-116
# In short: (§2)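 Luminescent ATP read-out (CellTiter-Glo) after 72 h compound exposure at 37 °C/5% CO2; duplicate wells; vehicle control DMSO <0.1% final; seeding density set per cell line.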
row,IC50,Compound
1,< 1 µM,CC(C)c1cnn2c(NCc3ccccc3-c3ccc4ccccc4n3)nc(NCCC(O)CN)nc12 (racemic) [Compound 234]
2,< 1 µM,CC(C)c1cnn2c(NCc3ccccc3-n3ccc(C(C)(C)O)n3)nc(NC[C@H]3CCNC[C@@H]3O)nc12 [Compound 233]

# Test system: H460
# Experiment: Cellular H460 viability assay (CellTiter-Glo, 72 hours)
# Format: cell-based
# Conditions: Homo sapiens, NCI-H460
# In short: as §2
row,IC50,Compound
1,1 to 10 µM,CC(C)c1cnn2c(NCc3ccccc3-n3cccn3)nc(N3CCC(O)CC3)nc12 [Compound 4]
2,< 1 µM,CC(C)c1cnn2c(NCc3ccccc3-c3ccc4ccccc4n3)nc(NCCC(O)CN)nc12 (racemic) [Compound 234]
3,< 1 µM,CC(C)c1cnn2c(NCc3ccccc3-n3ccc(C(C)(C)O)n3)nc(NC[C@H]3CCNC[C@@H]3O)nc12 [Compound 233]
4,< 1 µM,CC(C)c1cnn2c(NCc3ccccc3-n3cccn3)nc(N3CCNCC3)nc12 [Compound 2]

# Test system: MV4-11
# Experiment: Cellular MV4-11 viability assay (CellTiter-Glo, 72 hours)
# Format: cell-based
# Conditions: Homo sapiens
# In short: as §2
row,IC50,Compound
1,< 1 µM,CC(C)c1cnn2c(NCc3ccccc3-c3ccc4ccccc4n3)nc(NCCC(O)CN)nc12 (racemic) [Compound 234]
2,< 1 µM,CC(C)c1cnn2c(NCc3ccccc3-n3ccc(C(C)(C)O)n3)nc(NC[C@H]3CCNC[C@@H]3O)nc12 [Compound 233]
3,< 1 µM,CC(C)c1cnn2c(NCc3ccccc3-n3cccn3)nc(N3CCNCC3)nc12 [Compound 2]

# Test system: MOLT-4
# Experiment: Cellular MOLT-4 viability assay (CellTiter-Glo, 72 hours)
# Format: cell-based
# Conditions: Homo sapiens, MOLT4 viability assay
# In short: as §2
row,IC50,Compound
1,> 10 µM,CC(C)c1cnn2c(NCc3ccccc3-n3cccn3)nc(N3CCC(O)CC3)nc12 [Compound 4]
2,1 to 10 µM,CC(C)c1cnn2c(NCc3ccccc3-n3cccn3)nc(N3CCNCC3)nc12 [Compound 2]

# Test system: A2780
# Experiment: Cellular A2780 viability assay (CellTiter-Glo, 72 hours)
# Format: cell-based
# Conditions: Homo sapiens
# In short: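 Compound exposure lasted 72 h at 37° C, 5% CO2, over 0.0015–10 uM, DMSO kept under 0.1%, with dosing 24 h after seeding. Seeding: A2780 1×10^3, OVCAR-3 5×10^3, MM.1S 1×10^4 cells/well in 10% FBS RPMI-1640. Duplicate CellTiter-Glo luminescence readout.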
row,IC50,Compound
1,1 to 10 µM,CC(C)c1cnn2c(NCc3ccccc3-n3cccn3)nc(N3CCC(O)CC3)nc12 [Compound 4]
2,≤ 1 µM,CC(C)c1cnn2c(NCc3ccccc3-c3ccc4ccccc4n3)nc(NCCC(O)CN)nc12 (racemic) [Compound 234]
3,≤ 1 µM,CC(C)c1cnn2c(NCc3ccccc3-n3ccc(C(C)(C)O)n3)nc(NC[C@H]3CCNC[C@@H]3O)nc12 [Compound 233]
4,≤ 1 µM,CC(C)c1cnn2c(NCc3ccccc3-n3cccn3)nc(N3CCNCC3)nc12 [Compound 2]
